The text below walks through data of US20090149520A1, “OXAZOLIDINONES CONTAINING OXINDOLES AS ANTIBACTERIAL AGENTS” (PFIZER INC, priority 2006, published 2009).

Assay type in all cases: cell-based
The test system of one assay is S. aureus UC-76 SA-1. Put plainly: in vitro antibacterial activity MIC, S. aureus. As to conditions: Staphylococcus aureus, UC76; strain UC-76 SA-1; read-out: MICs S. aureus UC-76 SA-1. From the text: (§1) The in vitro antibacterial activity of the compounds of the present invention may be assessed by following procedures recommended in (1) National Committee for Clinical Laboratory Standards (January 2003), Methods for dilution antimicrobial tests for bacteria that grow aerobically, Approved Standard (6th ed), M7-A6, NCCLS, Wayne, Pa.; (2) National Committee for Clinical Laboratory Standards (March 2001), Methods for antimicrobial susceptibility testing of anaerobic bacteria, Approved Standard (5th ed), M11-A4, NCCLS, Wayne, Pa.; (3) National Committee for Clinical Laboratory Standards (Jan. 2003), MIC testing supplemental tables, M100-S13 (for use with M7-A6), NCCLS, Wayne, Pa.; and (4) Murray P R, Baron E J, Jorgensen J H, et al. Manual of Clinical Microbiology (8th ed) Washington, D.C.: American Society for Microbiology Press, 2003. The antibacterial activity can be presented in the form of MIC value. The MIC value is the lowest concentration of drug, which prevented macroscopically visible growth under the conditions of the test.

Another assay has as its system S. pneumoniae SV1 SP-3. Put plainly: in vitro antibacterial activity MIC, S. pneumoniae. As to conditions: Streptococcus pneumoniae, SV1SP3; strain SV1 SP-3; read-out: MICs S. pneumoniae SV1 SP-3.
Description: as §1

For a further assay, the system named is E. faecalis MGH-2 EF 1-1. Put plainly: in vitro antibacterial activity MIC, E. faecalis. As to conditions: Enterococcus faecalis, MGH2EF11; strain MGH-2 EF 1-1; read-out: MICs E. faecalis MGH-2 EF 1-1.
Description: as §1

≈ marks a conversion by molar mass, not a printed value.

Turning to `CC(C)N1C(=O)Cc2cc(N3C[C@H](Cn4ccnn4)OC3=O)ccc21` [Example 1, (R)-5-((1H-1,2,3-triazol-1-yl)methyl)-3-(1-isopropyl-2 oxoindolin-5-yl)oxazolidin-2-one], the MIC in the assay with S. aureus UC-76 SA-1, in the assay on S. pneumoniae SV1 SP-3 and in the assay with E. faecalis MGH-2 EF 1-1 was 8 µg/mL (≈ 23.4 µM) in each case.
Turning to `CCN1C(=O)Cc2cc(N3C[C@H](Cn4ccnn4)OC3=O)ccc21` [Example 2], the MIC in the assay with S. aureus UC-76 SA-1 was determined as 4 µg/mL (≈ 12.2 µM); with S. pneumoniae SV1 SP-3, 4 µg/mL (≈ 12.2 µM); in the assay on E. faecalis MGH-2 EF 1-1, 8 µg/mL (≈ 24.4 µM).
